In patent US9340590B2 (priority 2011, dated 2016):
pIC50: −log10 of the molar value. Like-named read-outs stand apart in the source and are kept apart here. Positions of bridges follow the written chain, without caps; N, C: chain ends. Residues, ends and D or L forms follow the SMILES beside them.

How the values were obtained:
Assay in all cases: cell-based
hNav1.7 = hNav1.7 (Homo sapiens, UniProt Q15858); assay type: cell-based; details: IonWorks Quattro, read-out: IWQ Use Nav1.7
hNav1.5 = hNav1.5 (Homo sapiens, UniProt Q14524); details: IonWorks Quattro, read-out: IWQ Use Nav1.5
hNav1.5, sequence (Q14524 whole entry, looked up): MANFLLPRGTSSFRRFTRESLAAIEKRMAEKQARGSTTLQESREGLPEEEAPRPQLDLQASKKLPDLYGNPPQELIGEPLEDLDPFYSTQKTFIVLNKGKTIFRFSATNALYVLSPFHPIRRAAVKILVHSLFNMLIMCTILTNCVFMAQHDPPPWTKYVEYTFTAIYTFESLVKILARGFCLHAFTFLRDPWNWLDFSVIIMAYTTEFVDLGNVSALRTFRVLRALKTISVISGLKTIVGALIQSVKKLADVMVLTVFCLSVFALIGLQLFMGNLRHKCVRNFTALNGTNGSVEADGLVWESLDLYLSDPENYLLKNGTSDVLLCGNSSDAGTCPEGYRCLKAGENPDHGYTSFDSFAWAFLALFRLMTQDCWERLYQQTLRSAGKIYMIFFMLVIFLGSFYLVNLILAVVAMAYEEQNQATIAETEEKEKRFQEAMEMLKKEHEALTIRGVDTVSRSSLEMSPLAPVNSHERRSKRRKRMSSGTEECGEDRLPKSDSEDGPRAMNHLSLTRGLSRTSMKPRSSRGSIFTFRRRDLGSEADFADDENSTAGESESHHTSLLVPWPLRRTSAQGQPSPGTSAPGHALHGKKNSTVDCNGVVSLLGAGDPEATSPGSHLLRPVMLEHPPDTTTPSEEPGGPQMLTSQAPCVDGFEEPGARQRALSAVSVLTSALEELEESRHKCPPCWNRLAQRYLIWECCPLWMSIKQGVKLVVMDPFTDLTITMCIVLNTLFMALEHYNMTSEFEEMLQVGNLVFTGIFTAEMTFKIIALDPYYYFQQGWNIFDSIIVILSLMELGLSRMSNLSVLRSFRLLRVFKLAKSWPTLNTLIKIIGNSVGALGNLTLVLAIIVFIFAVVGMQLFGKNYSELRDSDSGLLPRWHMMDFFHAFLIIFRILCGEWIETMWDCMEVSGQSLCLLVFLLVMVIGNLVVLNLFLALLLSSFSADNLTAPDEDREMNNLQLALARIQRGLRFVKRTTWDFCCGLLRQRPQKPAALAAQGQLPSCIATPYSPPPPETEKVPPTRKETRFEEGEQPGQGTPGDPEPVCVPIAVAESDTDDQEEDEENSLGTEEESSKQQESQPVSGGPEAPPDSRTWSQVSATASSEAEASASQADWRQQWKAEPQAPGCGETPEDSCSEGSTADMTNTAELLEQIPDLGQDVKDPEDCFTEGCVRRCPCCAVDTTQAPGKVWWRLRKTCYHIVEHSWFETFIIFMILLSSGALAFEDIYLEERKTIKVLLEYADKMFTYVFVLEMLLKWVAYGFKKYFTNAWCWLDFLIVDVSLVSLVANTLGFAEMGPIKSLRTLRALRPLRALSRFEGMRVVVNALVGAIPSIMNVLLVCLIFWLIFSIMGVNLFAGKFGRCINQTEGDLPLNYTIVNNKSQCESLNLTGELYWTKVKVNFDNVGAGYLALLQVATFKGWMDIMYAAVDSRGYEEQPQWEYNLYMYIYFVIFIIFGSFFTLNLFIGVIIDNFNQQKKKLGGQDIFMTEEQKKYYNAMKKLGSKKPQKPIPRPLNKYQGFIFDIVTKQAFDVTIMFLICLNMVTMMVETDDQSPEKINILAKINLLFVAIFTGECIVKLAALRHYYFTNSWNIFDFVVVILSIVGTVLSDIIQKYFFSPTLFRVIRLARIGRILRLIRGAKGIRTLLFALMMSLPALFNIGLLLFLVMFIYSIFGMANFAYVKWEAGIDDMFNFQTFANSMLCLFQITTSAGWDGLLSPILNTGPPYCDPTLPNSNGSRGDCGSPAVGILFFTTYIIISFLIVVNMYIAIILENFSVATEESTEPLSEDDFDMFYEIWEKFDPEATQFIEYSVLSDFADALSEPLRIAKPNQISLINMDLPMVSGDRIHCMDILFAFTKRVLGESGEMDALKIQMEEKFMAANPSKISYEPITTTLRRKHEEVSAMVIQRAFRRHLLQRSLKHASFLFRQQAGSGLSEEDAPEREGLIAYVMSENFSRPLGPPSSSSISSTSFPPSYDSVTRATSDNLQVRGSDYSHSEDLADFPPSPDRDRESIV

hNav1.3 = hNav1.3 (Homo sapiens, UniProt Q9NY46); details: IonWorks Quattro, read-out: IWQ Use Nav1.3
hNav1.3, sequence (Q9NY46 whole entry, looked up): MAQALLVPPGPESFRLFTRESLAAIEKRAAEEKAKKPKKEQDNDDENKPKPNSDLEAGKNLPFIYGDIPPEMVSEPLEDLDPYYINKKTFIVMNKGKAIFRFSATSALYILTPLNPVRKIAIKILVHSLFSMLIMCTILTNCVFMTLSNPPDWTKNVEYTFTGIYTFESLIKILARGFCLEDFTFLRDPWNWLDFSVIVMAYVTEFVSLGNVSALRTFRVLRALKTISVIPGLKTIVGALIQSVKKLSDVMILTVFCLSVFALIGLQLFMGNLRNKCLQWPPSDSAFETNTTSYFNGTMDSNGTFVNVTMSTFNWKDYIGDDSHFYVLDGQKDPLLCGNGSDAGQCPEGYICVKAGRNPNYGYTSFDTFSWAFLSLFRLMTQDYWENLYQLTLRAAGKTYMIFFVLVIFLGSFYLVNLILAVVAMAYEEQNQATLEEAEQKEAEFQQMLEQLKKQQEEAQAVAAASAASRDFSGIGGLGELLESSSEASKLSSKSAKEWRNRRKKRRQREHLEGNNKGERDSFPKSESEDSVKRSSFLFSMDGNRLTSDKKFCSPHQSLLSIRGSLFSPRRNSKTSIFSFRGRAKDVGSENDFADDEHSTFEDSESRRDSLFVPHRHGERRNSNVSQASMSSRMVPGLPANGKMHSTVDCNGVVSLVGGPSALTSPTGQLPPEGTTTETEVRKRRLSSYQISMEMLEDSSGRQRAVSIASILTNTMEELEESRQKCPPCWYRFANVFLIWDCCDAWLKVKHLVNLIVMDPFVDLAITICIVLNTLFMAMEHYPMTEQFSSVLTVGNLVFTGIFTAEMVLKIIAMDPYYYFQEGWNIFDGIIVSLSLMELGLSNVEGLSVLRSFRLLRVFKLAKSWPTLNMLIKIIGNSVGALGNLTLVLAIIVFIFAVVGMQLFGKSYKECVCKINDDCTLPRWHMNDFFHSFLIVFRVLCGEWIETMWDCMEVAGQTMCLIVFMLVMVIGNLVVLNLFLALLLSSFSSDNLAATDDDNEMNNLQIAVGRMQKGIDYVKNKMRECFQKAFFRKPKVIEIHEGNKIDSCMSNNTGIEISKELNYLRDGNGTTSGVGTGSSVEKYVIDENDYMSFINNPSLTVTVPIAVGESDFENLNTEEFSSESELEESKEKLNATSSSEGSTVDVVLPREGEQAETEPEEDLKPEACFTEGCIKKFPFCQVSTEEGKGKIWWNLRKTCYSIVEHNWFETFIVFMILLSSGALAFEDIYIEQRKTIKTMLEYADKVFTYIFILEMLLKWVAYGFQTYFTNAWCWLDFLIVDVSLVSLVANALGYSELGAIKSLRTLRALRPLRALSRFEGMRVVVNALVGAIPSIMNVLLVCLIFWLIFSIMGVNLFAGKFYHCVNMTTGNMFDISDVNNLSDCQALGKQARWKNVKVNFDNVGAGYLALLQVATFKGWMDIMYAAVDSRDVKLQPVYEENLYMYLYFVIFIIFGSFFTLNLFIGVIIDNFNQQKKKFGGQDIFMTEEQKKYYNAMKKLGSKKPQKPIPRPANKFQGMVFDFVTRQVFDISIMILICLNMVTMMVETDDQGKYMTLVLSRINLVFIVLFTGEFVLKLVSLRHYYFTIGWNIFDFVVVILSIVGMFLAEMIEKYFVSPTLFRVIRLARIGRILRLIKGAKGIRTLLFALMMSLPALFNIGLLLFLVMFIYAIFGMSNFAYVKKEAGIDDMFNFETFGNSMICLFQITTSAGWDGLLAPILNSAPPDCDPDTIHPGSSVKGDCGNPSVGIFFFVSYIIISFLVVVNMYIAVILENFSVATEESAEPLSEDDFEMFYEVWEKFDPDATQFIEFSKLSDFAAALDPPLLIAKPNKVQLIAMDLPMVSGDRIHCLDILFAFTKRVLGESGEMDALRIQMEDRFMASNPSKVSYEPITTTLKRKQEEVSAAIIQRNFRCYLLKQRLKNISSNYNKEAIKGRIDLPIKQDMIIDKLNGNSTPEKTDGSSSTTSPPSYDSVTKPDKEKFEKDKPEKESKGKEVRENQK

SMILES | pIC50 (hNav1.7; Use) | pIC50 (hNav1.5; Use) | pIC50 (hNav1.3; Use) | further results
CC[C@H](C)[C@@H]1NC(=O)[C@@H]2CSSC[C@@H]3NC(=O)[C@H](C(C)C)NC(=O)[C@H](CC(C)C)NC(=O)[C@H](CC(N)=O)NC(=O)[C@@H]4CCCN4C(=O)[C@H](CCCNC(=N)N)NC(=O)[C@H](CSSC[C@H](NC(=O)[C@@H](N)CC(=O)O)C(=O)N[C@@H](CC(C)C)C(=O)NCC(=O)N[C@@H](Cc4ccccc4)C(=O)N[C@@H](CCSC)C(=O)N[C@@H](CCCNC(=N)N)C(=O)N[C@@H](CCCCN)C(=O)N2)NC(=O)[C@H](CSSC[C@@H](C(=O)N[C@@H](Cc2c[nH]c4ccccc24)C(=O)N[C@@H](Cc2ccc(O)cc2)C(=O)N[C@H](C(=O)N[C@@H](Cc2ccccc2)C(N)=O)C(C)C)NC(=O)[C@H](Cc2c[nH]c4ccccc24)NC(=O)[C@H](CCCCN)NC(=O)[C@H](Cc2c[nH]cn2)NC(=O)[C@H]([C@@H](C)O)NC(=O)[C@H](CCCNC(=N)N)NC(=O)[C@H](CO)NC3=O)NC(=O)[C@H](CCCCN)NC(=O)[C@H](CC(=O)O)NC(=O)[C@H](CC(N)=O)NC(=O)[C@H](CC(=O)O)NC(=O)[C@@H]2CCCN2C1=O [compound 179] (H-DCLGFMRKCIPDNDKCCRPNLVCSRTHKWCWYVF-NH2; disulfide 2-17, 9-23, 16-30) | – | – | – | pIC50 (hNav1.7; Table 25, use, […]): 4.63; pIC50 (hNav1.5; Table 25, use, […]): 4.96; pIC50 (hNav1.3; Table 25, use, […]): 4.99
CC[C@H](C)[C@@H]1NC(=O)[C@@H]2CSSC[C@@H]3NC(=O)[C@H](C(C)C)NC(=O)[C@H](CC(C)C)NC(=O)[C@H](CC(N)=O)NC(=O)[C@@H]4CCCN4C(=O)[C@H](CCCNC(=N)N)NC(=O)[C@H](CSSC[C@H](NC(=O)[C@@H](N)CC(=O)O)C(=O)N[C@@H](CC(C)C)C(=O)NCC(=O)N[C@@H](Cc4ccccc4)C(=O)N[C@@H](CCSC)C(=O)N[C@@H](CCCNC(=N)N)C(=O)N[C@@H](CCCCN)C(=O)N2)NC(=O)[C@H](CSSC[C@@H](C(=O)N[C@@H](CCCCN)C(=O)N[C@@H](Cc2ccc(O)cc2)C(=O)N[C@@H](Cc2c[nH]c4ccccc24)C(=O)N[C@@H](Cc2ccccc2)C(N)=O)NC(=O)[C@H](Cc2c[nH]c4ccccc24)NC(=O)[C@H](CCCCN)NC(=O)[C@H](Cc2c[nH]cn2)NC(=O)[C@H]([C@@H](C)O)NC(=O)[C@H](CCCNC(=N)N)NC(=O)[C@H](CO)NC3=O)NC(=O)[C@H](CCCCN)NC(=O)[C@H](CC(=O)O)NC(=O)[C@H](CC(N)=O)NC(=O)[C@H](CC(=O)O)NC(=O)[C@@H]2CCCN2C1=O [compound 180] (H-DCLGFMRKCIPDNDKCCRPNLVCSRTHKWCKYWF-NH2; disulfide 2-17, 9-23, 16-30) | – | – | – | pIC50 (hNav1.7; Table 26, use, […]): 7.30; pIC50 (hNav1.5; Table 26, use, […]): 5.04; pIC50 (hNav1.3; Table 26, use, […]): 8.05
CC[C@H](C)[C@@H]1NC(=O)[C@@H]2CSSC[C@@H]3NC(=O)[C@H](C(C)C)NC(=O)[C@H](CC(C)C)NC(=O)[C@H](CC(N)=O)NC(=O)[C@H](CO)NC(=O)[C@H](CCCNC(=N)N)NC(=O)[C@H](CSSC[C@H](NC(=O)[C@@H](N)CC(=O)O)C(=O)N[C@@H](CC(C)C)C(=O)NCC(=O)N[C@@H](Cc4ccccc4)C(=O)N[C@@H](CCSC)C(=O)N[C@@H](CCCNC(=N)N)C(=O)N[C@@H](CCCCN)C(=O)N2)NC(=O)[C@H](CSSC[C@@H](C(=O)N[C@@H](CCCCN)C(=O)N[C@@H](Cc2ccc(O)cc2)C(=O)N[C@H](C(=O)N[C@@H](Cc2ccccc2)C(N)=O)C(C)C)NC(=O)[C@H](Cc2c[nH]c4ccccc24)NC(=O)[C@H](CCCCN)NC(=O)[C@H](Cc2c[nH]cn2)NC(=O)[C@H]([C@@H](C)O)NC(=O)[C@H](CCCNC(=N)N)NC(=O)[C@H](CO)NC3=O)NC(=O)[C@H](CCCCN)NC(=O)[C@H](CC(=O)O)NC(=O)[C@H](CC(N)=O)NC(=O)[C@H](CC(=O)O)NC(=O)[C@@H]2CCCN2C1=O [compound 181] (H-DCLGFMRKCIPDNDKCCRSNLVCSRTHKWCKYVF-NH2; disulfide 2-17, 9-23, 16-30) | 7.06 | 4.94 | 7.51 | –
CC[C@H](C)[C@@H]1NC(=O)[C@@H]2CSSC[C@@H]3NC(=O)[C@H](C(C)C)NC(=O)[C@H](CC(C)C)NC(=O)[C@H](CC(N)=O)NC(=O)[C@@H]4CCCN4C(=O)[C@H](CCCNC(=N)N)NC(=O)[C@H](CSSC[C@H](NC(=O)[C@@H](N)CC(=O)O)C(=O)N[C@@H](CC(C)C)C(=O)NCC(=O)N[C@@H](Cc4ccccc4)C(=O)N[C@@H](CCSC)C(=O)N[C@@H](CCCNC(=N)N)C(=O)N[C@@H](CCCCN)C(=O)N2)NC(=O)[C@H](CSSC[C@@H](C(=O)N[C@@H](CCCCN)C(=O)N[C@@H](Cc2ccc(O)cc2)C(=O)N[C@H](C(=O)N[C@@H](Cc2ccccc2)C(N)=O)C(C)C)NC(=O)[C@H](Cc2c[nH]c4ccccc24)NC(=O)[C@H](CCCCN)NC(=O)[C@H](Cc2c[nH]cn2)NC(=O)[C@H]([C@@H](C)O)NC(=O)[C@H](CCCNC(=N)N)NC(=O)[C@H](CO)NC3=O)NC(=O)[C@H](CCCCN)NC(=O)[C@H](CC(=O)O)NC(=O)[C@H](CC(N)=O)NC(=O)[C@H](CC(C)C)NC(=O)[C@@H]2CCCN2C1=O [compound 193] (H-DCLGFMRKCIPLNDKCCRPNLVCSRTHKWCKYVF-NH2; disulfide 2-17, 9-23, 16-30) | 7.10 | 5.17 | 7.15 | –
CC[C@H](C)[C@@H]1NC(=O)[C@@H]2CSSC[C@@H]3NC(=O)[C@H](C(C)C)NC(=O)[C@H](CC(C)C)NC(=O)[C@H](CC(N)=O)NC(=O)[C@@H]4CCCN4C(=O)[C@H](CCCNC(=N)N)NC(=O)[C@H](CSSC[C@H](NC(=O)[C@@H](N)CC(=O)O)C(=O)N[C@@H](CC(C)C)C(=O)NCC(=O)N[C@@H](Cc4ccccc4)C(=O)N[C@@H](CCSC)C(=O)N[C@@H](CCCNC(=N)N)C(=O)N[C@@H](CCCCN)C(=O)N2)NC(=O)[C@H](CSSC[C@@H](C(=O)N[C@@H](CCCCN)C(=O)N[C@@H](Cc2ccc(O)cc2)C(=O)N[C@H](C(=O)N[C@@H](Cc2ccccc2)C(N)=O)C(C)C)NC(=O)[C@H](Cc2c[nH]c4ccccc24)NC(=O)[C@H](CCCCN)NC(=O)[C@H](Cc2c[nH]cn2)NC(=O)[C@H]([C@@H](C)O)NC(=O)[C@H](CCCNC(=N)N)NC(=O)[C@H](CO)NC3=O)NC(=O)[C@H](CCCCN)NC(=O)[C@H](CC(=O)O)NC(=O)[C@H](CC(N)=O)NC(=O)CNC(=O)[C@@H]2CCCN2C1=O [compound 194] (H-DCLGFMRKCIPGNDKCCRPNLVCSRTHKWCKYVF-NH2; disulfide 2-17, 9-23, 16-30) | 7.12 | 5.06 | 7.33 | –
CC[C@H](C)[C@@H]1NC(=O)[C@@H]2CCCN2C(=O)[C@H]([C@@H](C)CC)NC(=O)[C@@H]2CSSC[C@@H]3NC(=O)[C@H](C(C)C)NC(=O)[C@H](CC(C)C)NC(=O)[C@H](CC(N)=O)NC(=O)[C@@H]4CCCN4C(=O)[C@H](CCCNC(=N)N)NC(=O)[C@H](CSSC[C@H](NC(=O)[C@@H](N)CC(=O)O)C(=O)N[C@@H](CC(C)C)C(=O)NCC(=O)N[C@@H](Cc4ccccc4)C(=O)N[C@@H](CCSC)C(=O)N[C@@H](CCCNC(=N)N)C(=O)N[C@@H](CCCCN)C(=O)N2)NC(=O)[C@H](CSSC[C@@H](C(=O)N[C@@H](CCCCN)C(=O)N[C@@H](Cc2ccc(O)cc2)C(=O)N[C@H](C(=O)N[C@@H](Cc2ccccc2)C(N)=O)C(C)C)NC(=O)[C@H](Cc2c[nH]c4ccccc24)NC(=O)[C@H](CCCCN)NC(=O)[C@H](Cc2c[nH]cn2)NC(=O)[C@H]([C@@H](C)O)NC(=O)[C@H](CCCNC(=N)N)NC(=O)[C@H](CO)NC3=O)NC(=O)[C@H](CCCCN)NC(=O)[C@H](CC(=O)O)NC(=O)[C@H](CC(N)=O)NC1=O [compound 195] (H-DCLGFMRKCIPINDKCCRPNLVCSRTHKWCKYVF-NH2; disulfide 2-17, 9-23, 16-30) | 6.18 | 4.74 | 6.22 | –
CC[C@H](C)[C@@H]1NC(=O)[C@@H]2CSSC[C@@H]3NC(=O)[C@H](C(C)C)NC(=O)[C@H](CC(C)C)NC(=O)[C@H](CC(N)=O)NC(=O)[C@@H]4CCCN4C(=O)[C@H](CCCNC(=N)N)NC(=O)[C@H](CSSC[C@H](NC(=O)[C@@H](N)CC(=O)O)C(=O)N[C@@H](CC(C)C)C(=O)NCC(=O)N[C@@H](Cc4ccccc4)C(=O)N[C@@H](CCSC)C(=O)N[C@@H](CCCNC(=N)N)C(=O)N[C@@H](CCCCN)C(=O)N2)NC(=O)[C@H](CSSC[C@@H](C(=O)N[C@@H](CCCCN)C(=O)N[C@@H](Cc2ccc(O)cc2)C(=O)N[C@H](C(=O)N[C@@H](Cc2ccccc2)C(N)=O)C(C)C)NC(=O)[C@H](Cc2c[nH]c4ccccc24)NC(=O)[C@H](CCCCN)NC(=O)[C@H](Cc2c[nH]cn2)NC(=O)[C@H]([C@@H](C)O)NC(=O)[C@H](CCCNC(=N)N)NC(=O)[C@H](CO)NC3=O)NC(=O)[C@H](CCCCN)NC(=O)[C@H](CC(=O)O)NC(=O)[C@H](CC(N)=O)NC(=O)[C@H]([C@@H](C)O)NC(=O)[C@@H]2CCCN2C1=O [compound 196] (H-DCLGFMRKCIPTNDKCCRPNLVCSRTHKWCKYVF-NH2; disulfide 2-17, 9-23, 16-30) | 7.01 | 5.15 | 7.13 | –
CC[C@H](C)[C@@H]1NC(=O)[C@@H]2CSSC[C@@H]3NC(=O)[C@H](C(C)C)NC(=O)[C@H](CC(C)C)NC(=O)[C@H](CC(N)=O)NC(=O)[C@@H]4CCCN4C(=O)[C@H](CCCNC(=N)N)NC(=O)[C@H](CSSC[C@H](NC(=O)[C@@H](N)CC(=O)O)C(=O)N[C@@H](CC(C)C)C(=O)NCC(=O)N[C@@H](Cc4ccccc4)C(=O)N[C@@H](CCSC)C(=O)N[C@@H](CCCNC(=N)N)C(=O)N[C@@H](CCCCN)C(=O)N2)NC(=O)[C@H](CSSC[C@@H](C(=O)N[C@@H](CCCCN)C(=O)N[C@@H](Cc2ccc(O)cc2)C(=O)N[C@H](C(=O)N[C@@H](Cc2ccccc2)C(N)=O)C(C)C)NC(=O)[C@H](Cc2c[nH]c4ccccc24)NC(=O)[C@H](CCCCN)NC(=O)[C@H](Cc2c[nH]cn2)NC(=O)[C@H]([C@@H](C)O)NC(=O)[C@H](CCCNC(=N)N)NC(=O)[C@H](CO)NC3=O)NC(=O)[C@H](CCCCN)NC(=O)[C@H](CC(=O)O)NC(=O)[C@H](CC(N)=O)NC(=O)[C@H](Cc2ccc(O)cc2)NC(=O)[C@@H]2CCCN2C1=O [compound 197] (H-DCLGFMRKCIPYNDKCCRPNLVCSRTHKWCKYVF-NH2; disulfide 2-17, 9-23, 16-30) | 7.01 | 5.16 | 7.38 | –
